In article PMC12692169, “Identification of Novel TAT-I24-Related Peptides with Antiviral Activities” (International Journal of Molecular Sciences, 2025):
Residues, ends and D or L forms follow the SMILES beside them.

Experiments:
[1] = tested on: mouse cytomegalovirus (MCMV)/NIH/3T3 cells; conditions: 72 h
red blood cells (RBC) = test: RBC swelling (enlarged pellet after centrifugation); conditions: 1 h; for RBC swelling: peptides diluted in PBS (absence of serum), up to 20 µM, pellet size after centrifugation; for RBC swelling in the presence of serum: peptides diluted in 10% human/donor serum
Baculovirus/HEK293 = conditions: 24 h

Compound	IC50 [1] [nM]	RBC swelling (red blood cells (RBC))	IC50 (Baculovirus/HEK293) [nM]	RBC swelling in the presence of serum (red blood cells (RBC))
CC(C)[C@H](NC(=O)[C@H](CO)NC(=O)[C@H](CCC(N)=O)NC(=O)[C@@H]1CCCN1C(=O)[C@@H]1CCCN1C(=O)[C@H](CCCNC(=N)N)NC(=O)[C@H](CCCNC(=N)N)NC(=O)[C@H](CCCNC(=N)N)NC(=O)[C@H](CCC(N)=O)NC(=O)[C@H](CCCNC(=N)N)NC(=O)[C@H](CCCNC(=N)N)NC(=O)[C@H](CCCCN)NC(=O)[C@H](CCCCN)NC(=O)[C@H](CCCNC(=N)N)NC(=O)CN)C(=O)N[C@@H](Cc1ccccc1)C(=O)N[C@@H](Cc1ccc(O)cc1)C(=O)N[C@@H](C)C(=O)N[C@@H](CS)C(=O)N[C@@H](Cc1ccccc1)C(=O)N[C@@H](C)C(=O)N[C@@H](CS)C(=O)O [TAT-De1] (H-GRKKRRQRRRPPQSVFYACFAC-OH)	1610	less effect on RBC swelling	37	–
CC(C)C[C@H](NC(=O)[C@H](CS)NC(=O)[C@H](CCC(N)=O)NC(=O)[C@@H]1CCCN1C(=O)[C@@H]1CCCN1C(=O)[C@H](CCCNC(=N)N)NC(=O)[C@H](CCCNC(=N)N)NC(=O)[C@H](CCCNC(=N)N)NC(=O)[C@H](CCC(N)=O)NC(=O)[C@H](CCCNC(=N)N)NC(=O)[C@H](CCCNC(=N)N)NC(=O)[C@H](CCCCN)NC(=O)[C@H](CCCCN)NC(=O)[C@H](CCCNC(=N)N)NC(=O)CN)C(=O)N[C@@H](C)C(=O)N[C@@H](Cc1ccccc1)C(=O)N[C@@H](Cc1ccc(O)cc1)C(=O)N[C@@H](C)C(=O)N[C@@H](CS)C(=O)N[C@@H](Cc1ccccc1)C(=O)N[C@@H](CS)C(=O)O [TAT-I24] (H-GRKKRRQRRRPPQCLAFYACFC-OH)	809	caused RBC swelling at higher concentrations	16	not in the presence of donor serum
CC[C@H](C)[C@H](NC(=O)[C@H](C)NC(=O)[C@H](CC(C)C)NC(=O)[C@H](CS)NC(=O)[C@H](CCC(N)=O)NC(=O)[C@@H]1CCCN1C(=O)[C@@H]1CCCN1C(=O)[C@H](CCCNC(=N)N)NC(=O)[C@H](CCCNC(=N)N)NC(=O)[C@H](CCCNC(=N)N)NC(=O)[C@H](CCC(N)=O)NC(=O)[C@H](CCCNC(=N)N)NC(=O)[C@H](CCCNC(=N)N)NC(=O)[C@H](CCCCN)NC(=O)[C@H](CCCCN)NC(=O)[C@H](CCCNC(=N)N)NC(=O)CN)C(=O)N[C@@H](Cc1ccc(O)cc1)C(=O)N[C@@H](CC(=O)O)C(=O)N[C@@H](CS)C(=O)N[C@@H](Cc1ccccc1)C(=O)N[C@@H](CS)C(=O)O [TAT-M13] (H-GRKKRRQRRRPPQCLAIYDCFC-OH)	1220	caused RBC swelling at higher concentrations	31	–
CC(C)C[C@H](NC(=O)[C@H](CS)NC(=O)[C@H](CCC(N)=O)NC(=O)[C@@H]1CCCN1C(=O)[C@@H]1CCCN1C(=O)[C@H](CCCNC(=N)N)NC(=O)[C@H](CCCNC(=N)N)NC(=O)[C@H](CCCNC(=N)N)NC(=O)[C@H](CCC(N)=O)NC(=O)[C@H](CCCNC(=N)N)NC(=O)[C@H](CCCNC(=N)N)NC(=O)[C@H](CCCCN)NC(=O)[C@H](CCCCN)NC(=O)[C@H](CCCNC(=N)N)NC(=O)CN)C(=O)N[C@@H](C)C(=O)N[C@H](C(=O)N[C@@H](Cc1ccc(O)cc1)C(=O)N[C@@H](CC(=O)O)C(=O)N[C@@H](CS)C(=O)N[C@@H](Cc1ccccc1)C(=O)N[C@H](C(=O)O)C(C)C)C(C)C [TAT-M17] (H-GRKKRRQRRRPPQCLAVYDCFV-OH; N-terminus and C-terminus assumed)	5850	did not cause RBC swelling in the absence of serum even at 20 µM	102	–
CC(C)C[C@H](NC(=O)[C@H](CS)NC(=O)[C@H](CCC(N)=O)NC(=O)[C@@H]1CCCN1C(=O)[C@@H]1CCCN1C(=O)[C@H](CCCNC(=N)N)NC(=O)[C@H](CCCNC(=N)N)NC(=O)[C@H](CCCNC(=N)N)NC(=O)[C@H](CCC(N)=O)NC(=O)[C@H](CCCNC(=N)N)NC(=O)[C@H](CCCNC(=N)N)NC(=O)[C@H](CCCCN)NC(=O)[C@H](CCCCN)NC(=O)[C@H](CCCNC(=N)N)NC(=O)CN)C(=O)N[C@@H](C)C(=O)N[C@H](C(=O)N[C@@H](Cc1c[nH]cn1)C(=O)N[C@@H](CC(=O)O)C(=O)N[C@@H](CS)C(=O)N[C@@H](Cc1ccccc1)C(=O)N[C@H](C(=O)O)C(C)C)C(C)C [TAT-M22] (H-GRKKRRQRRRPPQCLAVHDCFV-OH; N-terminus and C-terminus assumed)	11800	did not cause RBC swelling in the absence of serum even at 20 µM	245	–
CC(C)C[C@H](NC(=O)[C@H](CS)NC(=O)[C@H](C)NC(=O)[C@H](Cc1ccc(O)cc1)NC(=O)[C@H](Cc1ccccc1)NC(=O)[C@H](C)NC(=O)[C@H](CC(C)C)NC(=O)[C@H](CCC(N)=O)NC(=O)[C@@H]1CCCN1C(=O)[C@@H]1CCCN1C(=O)[C@H](CCCNC(=N)N)NC(=O)[C@H](CCCNC(=N)N)NC(=O)[C@H](CCCNC(=N)N)NC(=O)[C@H](CCC(N)=O)NC(=O)[C@H](CCCNC(=N)N)NC(=O)[C@H](CCCNC(=N)N)NC(=O)[C@H](CCCCN)NC(=O)[C@H](CCCCN)NC(=O)[C@H](CCCNC(=N)N)NC(=O)CN)C(=O)N[C@@H](C)C(=O)N[C@@H](Cc1ccccc1)C(=O)O [TAT-M40] (H-GRKKRRQRRRPPQLAFYACLAF-OH)	1850	caused RBC swelling at higher concentrations	21	–
CC(C)C[C@H](NC(=O)[C@H](CS)NC(=O)[C@H](C)NC(=O)[C@H](Cc1ccc(O)cc1)NC(=O)[C@H](Cc1ccccc1)NC(=O)[C@H](C)NC(=O)[C@H](CC(C)C)NC(=O)[C@H](CS)NC(=O)[C@@H]1CCCN1C(=O)[C@H](CCCNC(=N)N)NC(=O)[C@H](CCCNC(=N)N)NC(=O)[C@H](CCCNC(=N)N)NC(=O)[C@H](CCC(N)=O)NC(=O)[C@H](CCCNC(=N)N)NC(=O)[C@H](CCCNC(=N)N)NC(=O)[C@H](CCCCN)NC(=O)[C@H](CCCCN)NC(=O)[C@H](CCCNC(=N)N)NC(=O)CN)C(=O)N[C@@H](C)C(=O)N[C@@H](Cc1ccccc1)C(=O)N[C@@H](Cc1ccc(O)cc1)C(=O)N[C@@H](C)C(=O)N[C@@H](CS)C(=O)O [TAT-M212] (H-GRKKRRQRRRPCLAFYACLAFYAC-OH)	18200	caused RBC swelling over a broad concentration range comparable to TAT-M214	619	–
CC(C)C[C@H](NC(=O)[C@H](CO)NC(=O)[C@H](C)NC(=O)[C@H](Cc1ccc(O)cc1)NC(=O)[C@H](Cc1ccccc1)NC(=O)[C@H](C)NC(=O)[C@H](CC(C)C)NC(=O)[C@H](CCC(N)=O)NC(=O)[C@@H]1CCCN1C(=O)[C@@H]1CCCN1C(=O)[C@H](CCCNC(=N)N)NC(=O)[C@H](CCCNC(=N)N)NC(=O)[C@H](CCCNC(=N)N)NC(=O)[C@H](CCC(N)=O)NC(=O)[C@H](CCCNC(=N)N)NC(=O)[C@H](CCCNC(=N)N)NC(=O)[C@H](CCCCN)NC(=O)[C@H](CCCCN)NC(=O)[C@H](CCCNC(=N)N)NC(=O)CN)C(=O)N[C@@H](C)C(=O)N[C@@H](Cc1ccccc1)C(=O)O [TAT-M219] (H-GRKKRRQRRRPPQLAFYASLAF-OH)	7380	did not cause RBC swelling in the absence of serum even at 20 µM	96	–
CC(C)C[C@H](NC(=O)[C@H](Cc1ccccc1)NC(=O)[C@H](CS)NC(=O)[C@H](Cc1ccccc1)NC(=O)[C@@H]1CCCN1C(=O)[C@H](CO)NC(=O)[C@H](CCC(N)=O)NC(=O)[C@@H]1CCCN1C(=O)[C@@H]1CCCN1C(=O)[C@H](CCCNC(=N)N)NC(=O)[C@H](CCCNC(=N)N)NC(=O)[C@H](CCCNC(=N)N)NC(=O)[C@H](CCC(N)=O)NC(=O)[C@H](CCCNC(=N)N)NC(=O)[C@H](CCCNC(=N)N)NC(=O)[C@H](CCCCN)NC(=O)[C@H](CCCCN)NC(=O)[C@H](CCCNC(=N)N)NC(=O)CN)C(=O)N[C@@H](C)C(=O)N[C@@H](Cc1ccccc1)C(=O)N[C@@H](CS)C(=O)N[C@@H](Cc1ccccc1)C(=O)O [TAT-T7] (H-GRKKRRQRRRPPQSPFCFLAFCF-OH; N-terminus and C-terminus assumed)	1130	caused RBC swelling at higher concentrations	17	not in the presence of donor serum
